{
  "source": "patent US9932572B2",
  "about": "“Modified Caspase polypeptides and uses thereof” (BELLICUM PHARMACEUTICALS, INC., priority 2013, dated 2018)",
  "key": {"[1]": {"tested_on": "gene-modified allodepleted cells", "test": "Induction of apoptosis with AP20187 in gene-modified allodepleted cells (annexin V/7-AAD)", "type": "cell-based, human", "protocol": "(§1) Suicide gene functionality was assessed by adding a small molecule synthetic homodimerizer, AP20187 (Ariad Pharmaceuticals; Cambridge, Mass.), at 10 nM final concentration the day following CD19 immunomagnetic selection. Cells were stained with annexin V and 7-amino-actinomycin (7-AAD)(BD Pharmingen) at 24 hours and analyzed by flow cytometry. Cells negative for both Annexin V and 7-AAD were considered viable, cells that were annexin V positive were apoptotic, and cells that were both annexin V and 7-AAD positive were necrotic. The percentage killing induced by dimerization was corrected for baseline viability as follows: Percentage killing=100%−(% Viability in AP20187-treated cells÷% Viability in non-treated cells).\nCells were maintained in T cell medium containing 50 U/ml IL-2 until 22 days after transduction. A portion of cells was reactivated on 24-well plates coated with […] OKT3 and 1 μg/ml anti-CD28 (Clone CD28.2, BD Pharmingen, San Jose, Calif.) for 48 to 72 hours. CD19 expression and suicide gene function in both reactivated and non-reactivated cells were measured on day 24 or 25 post transduction."}, "iCasp9-transduced MSCs": {"tested_on": "iCasp9-transduced MSCs", "test": "Apoptosis studies in vitro, undifferentiated MSCs (annexin V-PE/7-AAD)", "type": "cell-based, human", "settings": "magnetically immunoselected iCasp9-CD19-positive cells after exposure to CID", "protocol": "Undifferentiated MSCs. The chemical inducer of dimerization (CID) (AP20187; ARIAD Pharmaceuticals, Cambridge, Mass.) was added at 50 nM to iCasp9-transduced MSCs cultures in complete medium. Apoptosis was evaluated 24 hours later by FACS analysis, after cell harvest and staining with annexin V-PE and 7-AAD in annexin V binding buffer (BD Biosciences, San Diego, Calif.). Control iCasp9-transduced MSCs were maintained in culture without exposure to CID."}, "[2]": {"tested_on": "iCasp9-ΔCD19-transduced MSCs", "test": "In vivo killing of MSCs in SCID mouse model (qPCR)", "parameters": "species or system SCID mice"}, "non-transduced cells": {"tested_on": "non-transduced cells", "test": "Viability of non-transduced cells with AP20187", "type": "cell-based, human", "settings": "non-transduced cells (n=6)", "protocol": "as §1"}, "[3]": {"tested_on": "iCasp9M.IRES.GFPhigh-transduced CTLs", "test": "SCID mouse-human xenograft model, human CD3+/GFP+ T cells in tumors", "type": "in vivo, NOD/SCID mice", "settings": "single dose of CID (50 μg AP20187 i.p.) vs carrier; tumors 3 days after", "protocol": "Non-obese diabetic severe combined immunodeficient (NOD/SCID) mice, 6 to 8 weeks of age, were irradiated (250 rad) and injected subcutaneously in the right flank with 10×10^6 to 15×10^6 LCLs resuspended in Matrigel (BD Bioscience). Two weeks later mice bearing tumors that were approximately 0.5 cm in diameter were injected into the tail vein with a 1:1 mixture of nontransduced and iCasp9.I.GFPhigh-transduced EBV CTLs (total 15×10^6). At 4 to 6 hours prior and 3 days after CTL infusion, mice were injected intraperitoneally with recombinant hIL-2 (2000 U; Proleukin; Chiron). On day 4, the mice were randomly segregated in 2 groups: 1 group received CID (50 μg AP20187, intraperitoneally) and 1 group received carrier only (16.7% propanediol, 22.5% PEG400, and 1.25% Tween 80, intraperitoneally). […] By FACS analysis, the number of GFP+ cells within the gated CD3^+ population was evaluated. […]\nThe function of iCasp9M in vivo, is graphically illustrated in FIG. 7. […] On day 3 after CTL administration, mice received either CID (50 μg AP20187; (black diamonds, n=6) or carrier only (black squares, n=5) and on day 6 the presence of human CD3+/GFP+ T cells in the tumors was analyzed. Human CD3+ T cells isolated from the tumors of a control group of mice that received only nontransduced CTLs (15×10^6 CTLs; n=4) were used as a negative control for the analysis of CD3+/GFP+ T cells within the tumors."}, "[4]": {"molecular_target": "chimeric Caspase-9 polypeptide (Homo sapiens, UniProt P62942, F37V)", "sequence (P62942 2-108 F37V limits assumed)": "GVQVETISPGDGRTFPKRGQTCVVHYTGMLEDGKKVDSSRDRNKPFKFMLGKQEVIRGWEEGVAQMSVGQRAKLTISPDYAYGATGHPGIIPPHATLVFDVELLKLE", "settings": "cited from earlier work"}, "CD3+ΔCD19+ cells": {"tested_on": "CD3+ΔCD19+ cells", "test": "CASPALLO phase 1 clinical trial, AP1903 in patients with GvHD after iCasp9+ T cells", "type": "in vivo, human", "settings": "after AP1903 administration", "excerpt": "Three patients received iCasp9+ T cells after haplo-CD34^+ stem cell transplantation (SCT), at dose levels between about 1×10^6 to about 3×10^6 cells/kg."}, "[5]": {"settings": "cited from earlier work"}, "HEK293T/16 cells": {"tested_on": "HEK293T/16 cells", "test": "Secreted alkaline phosphatase (SEAP) reporter-based surrogate killing assay", "type": "cell-based, human", "settings": "for relative SEAP activity Units (basal activity): no AP1903, higher SEAP = lower basal activity; for basal signaling: compared to iCasp9 WT; for cost of higher IC50 to AP1903: versus unmodified iCasp9", "protocol": "FIG. 45 provides an analysis of SEAP assays. To examine both basal signaling and AP1903-induced activity, 10^6 early-passage HEK293T/16 cells were co-transfected with various amounts of plasmids expressing Caspase-9 mutants along with 500 ng of SEAP reporter plasmid, used as a surrogate marker for cell viability. […] of the mixture was seeded onto each well of a 96-well plate. […] For the assay, 4-MUP was hydrolyzed by SEAP to 4-methylumbelliferon, a metabolite that can be excited at 364 nm and detected at an emission of 448 nm. Because SEAP is used as a marker for cell viability, reduced SEAP readings correspond with increased iCaspase-9 activities.\nEarly passage HEK293T/16 (ATCC, Manassas, Va.) was maintained in IMDM, GlutaMAX™ (Life Technologies, Carlsbad, Calif.) supplemented with 10% FBS, 100 U/mL penicillin, and 100 U/mL streptomycin until transfection in a humidified, 37° C., 5% CO2/95% air atmosphere. Cells in logarithmic-phase growth were transiently transfected with 800 ng to 2 μg of expression plasmid encoding iCasp9 mutants and 500 ng of an expression plasmid encoding SRα promoter driven SEAP per million cells in 15-mL conical tubes. […] GeneJammer® Transfection Reagent at a ratio of 3 μl per ug of plasmid DNA was used to transiently transfect HEK293T/16 in the absence of antibiotics. 100 μl or 2 mL of the transfection mixture was added to each well in 96-well or 6-well plate, respectively.\nBriefly, after 65° C. heat denaturation for 45 minutes to reduce background caused by endogenous (and serum-derived) alkaline phosphatases that are sensitive to heat, 5 μl of supernatants was added to 95 μl of PBS and added to 100 μl of substrate buffer, containing 1 μl of 100 mM 4-methylumbelliferyl phosphate (4-MUP; Sigma, St. Louis, Mo.) re-suspended in 2 M diethanolamine. Hydrolysis of 4-MUP by SEAP produces a fluorescent […] with excitation/emission (355/460 nm), which can be easily measured. Assays were performed in black opaque 96-well plates to minimize fluorescence leakage between wells (FIG. 45)."}, "[6]": {"settings": "10 nM, 24 hours, day after immunomagnetic selection"}},
  "note": "Read-outs that look alike come from different tables or passages of the source.",
  "data": [
    {"molecule": "CC[C@H](C(=O)N1CCCC[C@H]1C(=O)O[C@H](CCc1ccc(OC)c(OC)c1)c1cccc(OCC(=O)NCC(CNC(=O)COc2cccc([C@@H](CCc3ccc(OC)c(OC)c3)OC(=O)[C@@H]3CCCCN3C(=O)[C@@H](CC)c3cc(OC)c(OC)c(OC)c3)c2)CN(C)C)c1)c1cc(OC)c(OC)c(OC)c1", "note": "[AP20187]", "values": [
      {"measurement": "AP20187-treated cells remained viable", "setting": "[1]; [6]", "result": "about 5.5%"},
      {"measurement": "Killing efficiency after correction for baseline viability", "setting": "[1]; [6]", "result": "about 92.9%"},
      {"measurement": "killing efficiency", "setting": "[1]; reactivated, CD25 positive cells", "result": "about 93%"},
      {"measurement": "selected cells become apoptotic", "setting": "iCasp9-transduced MSCs", "result": "More than 95%"},
      {"measurement": "proportion of surviving iCasp9-positive cells, % of the original population", "setting": "[2]", "result": 0.7, "unit": "%"},
      {"measurement": "viability with AP20187", "setting": "non-transduced cells", "result": "about 86%"},
      {"measurement": "reduction in the number of human CD3+/GFP+ T cells", "setting": "[3]", "result": "> 99", "unit": "%"}
    ]},
    {"molecule": "CC[C@H](C(=O)N1CCCC[C@H]1C(=O)O[C@H](CCc1ccc(OC)c(OC)c1)c1cccc(OCC(=O)NCCNC(=O)COc2cccc([C@@H](CCc3ccc(OC)c(OC)c3)OC(=O)[C@@H]3CCCCN3C(=O)[C@@H](CC)c3cc(OC)c(OC)c(OC)c3)c2)c1)c1cc(OC)c(OC)c(OC)c1", "note": "(relative stereo) [AP1903, 2-Piperidinecarboxylic acid, 1-[(2S)-1-oxo-2-(3,4,5-trimethoxyphenyl)butyl]-, 1,2-ethanediylbis[imino(2-oxo-2,1-ethanediyl)oxy-3,1-phenylene[(1R)-3-(3,4-dimethoxyphenyl)propylidene]] ester, [2S-[1(R*),2R*[S*[S*[1(R*),2R*]]]]]-(9CI)]", "values": [
      {"measurement": "amount of AP1903 needed in vitro for effective signaling of cells", "setting": "[4]", "result": "10 to 100", "unit": "nM"},
      {"measurement": "resolution of skin and liver aGvHD", "setting": "CD3+ΔCD19+ cells", "result": "≤ 24", "unit": "h"},
      {"measurement": "safety / adverse effects in Phase I study", "setting": "[5]; 0.01 mg/kg to 1.0 mg/kg dose range, healthy volunteers, listed as API903", "result": "No serious adverse events"},
      {"measurement": "plasma levels, % of maximal concentration", "setting": "[5]; 2 hours post-dose", "result": "~7", "unit": "%"},
      {"measurement": "plasma levels, % of maximal concentration", "setting": "[5]; 10 hours post-dose", "result": "~1", "unit": "%"},
      {"measurement": "Doses well-tolerated", "setting": "[5]; Phase I study", "result": "up to 1 mg/kg"}
    ]},
    {"molecule": "N405Q: chimeric modified Caspase-9 polypeptide, SEQ ID NO: 26 (protein) GFGDVGALESLRGNADLAYILSMEPCGHCLIINNVNFCRESGLRTRTGSNIDCEKLRRRFSSLHFMVEVKGDLTAKKMVLALLELARQDHGALDCCVVVILSHGCQASHLQFPGAVYGTDGCPVSVEKIVNIFNGTSCPSLGGKPKLFFIQACGGEQKDHGFEVASTSPEDESPGSNPEPDATPFQEGLRTFDQLDAISSLPTPSDIFVSYSTFPGFVSWRDPKSGSWYVETLDDIFEQWAHSEDLQSLLLRVANAVSVKGIYKQMPGCFQFLRKKLFFKTS", "values": [
      {"measurement": "relative SEAP activity Units (basal activity)", "setting": "HEK293T/16 cells; 1 μg iCasp9 per million cells", "result": "179081 relative SEAP activity Units"},
      {"measurement": "relative SEAP activity Units (basal activity)", "setting": "HEK293T/16 cells; 2 μg iCasp9 per million cells", "result": "175529 relative SEAP activity Units"},
      {"measurement": "basal signaling", "setting": "HEK293T/16 cells", "result": "lower basal signaling"},
      {"measurement": "cost of higher IC50 to AP1903", "setting": "HEK293T/16 cells", "result": "< 10", "unit": "fold"}
    ]},
    {"molecule": "D330A: chimeric modified Caspase-9 polypeptide, SEQ ID NO: 24 (protein) GFGDVGALESLRGNADLAYILSMEPCGHCLIINNVNFCRESGLRTRTGSNIDCEKLRRRFSSLHFMVEVKGDLTAKKMVLALLELARQDHGALDCCVVVILSHGCQASHLQFPGAVYGTDGCPVSVEKIVNIFNGTSCPSLGGKPKLFFIQACGGEQKDHGFEVASTSPEDESPGSNPEPDATPFQEGLRTFDQLAAISSLPTPSDIFVSYSTFPGFVSWRDPKSGSWYVETLDDIFEQWAHSEDLQSLLLRVANAVSVKGIYKQMPGCFNFLRKKLFFKTS", "values": [
      {"measurement": "relative SEAP activity Units (basal activity)", "setting": "HEK293T/16 cells; 1 μg iCasp9 per million cells", "result": "148928 relative SEAP activity Units"},
      {"measurement": "relative SEAP activity Units (basal activity)", "setting": "HEK293T/16 cells; 2 μg iCasp9 per million cells", "result": "136863 relative SEAP activity Units"},
      {"measurement": "basal signaling", "setting": "HEK293T/16 cells", "result": "lower basal signaling"},
      {"measurement": "cost of higher IC50 to AP1903", "setting": "HEK293T/16 cells", "result": "< 5", "unit": "fold"}
    ]},
    {"molecule": "D330A-N405Q: chimeric modified Caspase-9 polypeptide, double mutant, SEQ ID NO: 28 (protein) GFGDVGALESLRGNADLAYILSMEPCGHCLIINNVNFCRESGLRTRTGSNIDCEKLRRRFSSLHFMVEVKGDLTAKKMVLALLELARQDHGALDCCVVVILSHGCQASHLQFPGAVYGTDGCPVSVEKIVNIFNGTSCPSLGGKPKLFFIQACGGEQKDHGFEVASTSPEDESPGSNPEPDATPFQEGLRTFDQLAAISSLPTPSDIFVSYSTFPGFVSWRDPKSGSWYVETLDDIFEQWAHSEDLQSLLLRVANAVSVKGIYKQMPGCFQFLRKKLFFKTS", "values": [
      {"measurement": "relative SEAP activity Units (basal activity)", "setting": "HEK293T/16 cells; 1 μg iCasp9 per million cells", "result": "205772 relative SEAP activity Units"},
      {"measurement": "relative SEAP activity Units (basal activity)", "setting": "HEK293T/16 cells; 2 μg iCasp9 per million cells", "result": "174366 relative SEAP activity Units"},
      {"measurement": "basal signaling", "setting": "HEK293T/16 cells", "result": "lower basal signaling"}
    ]}
  ]
}
